The values below come from PMC6746701, “A phyB-PIF1-SPA1 kinase regulatory complex promotes photomorphogenesis in Arabidopsis” (Nature Communications, 2019).

One test has as its target T1, full-length SPA1 (Arabidopsis thaliana, UniProt Q9SYX2).
T1 construct: full length, strep-tagged (3x Flag also cloned), Pichia pastoris GS115, tags kept
T1 sequence (Q9SYX2 1-1029): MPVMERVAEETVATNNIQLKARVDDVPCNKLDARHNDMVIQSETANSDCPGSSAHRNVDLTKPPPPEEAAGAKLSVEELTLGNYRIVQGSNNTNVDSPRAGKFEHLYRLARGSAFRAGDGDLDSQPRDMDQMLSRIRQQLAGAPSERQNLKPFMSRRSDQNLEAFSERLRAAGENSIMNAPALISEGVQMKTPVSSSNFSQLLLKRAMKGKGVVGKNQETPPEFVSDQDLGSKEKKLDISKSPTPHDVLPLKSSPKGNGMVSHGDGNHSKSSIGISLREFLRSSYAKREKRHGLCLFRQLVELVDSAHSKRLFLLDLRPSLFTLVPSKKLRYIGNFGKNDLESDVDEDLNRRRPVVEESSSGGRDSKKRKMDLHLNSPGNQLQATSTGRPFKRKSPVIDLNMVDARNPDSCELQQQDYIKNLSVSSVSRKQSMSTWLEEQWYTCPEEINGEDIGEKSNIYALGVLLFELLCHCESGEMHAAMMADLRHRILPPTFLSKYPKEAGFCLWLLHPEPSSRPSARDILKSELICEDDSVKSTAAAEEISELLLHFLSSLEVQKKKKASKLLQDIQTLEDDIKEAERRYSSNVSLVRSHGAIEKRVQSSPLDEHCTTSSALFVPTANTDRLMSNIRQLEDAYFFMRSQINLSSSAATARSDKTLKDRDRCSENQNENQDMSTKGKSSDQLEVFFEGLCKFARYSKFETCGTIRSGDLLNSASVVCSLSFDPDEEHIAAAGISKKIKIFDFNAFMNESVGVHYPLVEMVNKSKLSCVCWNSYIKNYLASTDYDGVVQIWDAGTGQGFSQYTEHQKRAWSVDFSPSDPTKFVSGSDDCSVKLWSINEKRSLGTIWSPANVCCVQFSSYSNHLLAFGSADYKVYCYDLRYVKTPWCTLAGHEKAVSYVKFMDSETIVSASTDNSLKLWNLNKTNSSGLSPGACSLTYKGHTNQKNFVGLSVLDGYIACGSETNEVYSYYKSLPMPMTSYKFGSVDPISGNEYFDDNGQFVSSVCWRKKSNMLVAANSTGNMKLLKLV
The test can be described thus: in vitro kinase assay, autoradiogram. In kind it is biochemical. Particulars: GST-PIF1 as co-substrate, ATP 0.004-2.5 mM, 10 mM MgCl2, pH 7.5, 28 °C; labelled compound (gamma-32P).

The target in test [1] is T2, phyB-GFP ΔC purified from yeast (Saccharomyces cerevisiae) (Arabidopsis, UniProt P14713 1-1092, phycocyanobilin (PCB) chromophore assembled).
T2 construct: phytochrome B (phyB), Arabidopsis, residues 1-1092 (lacks the last 80 amino acids); The methods describe the yeast purification only for the full-length protein; also called phyB ΔC-GFP; source: Saccharomyces cerevisiae, purified; not shown: GFP, C-terminal, kept
T2 sequence (looked up): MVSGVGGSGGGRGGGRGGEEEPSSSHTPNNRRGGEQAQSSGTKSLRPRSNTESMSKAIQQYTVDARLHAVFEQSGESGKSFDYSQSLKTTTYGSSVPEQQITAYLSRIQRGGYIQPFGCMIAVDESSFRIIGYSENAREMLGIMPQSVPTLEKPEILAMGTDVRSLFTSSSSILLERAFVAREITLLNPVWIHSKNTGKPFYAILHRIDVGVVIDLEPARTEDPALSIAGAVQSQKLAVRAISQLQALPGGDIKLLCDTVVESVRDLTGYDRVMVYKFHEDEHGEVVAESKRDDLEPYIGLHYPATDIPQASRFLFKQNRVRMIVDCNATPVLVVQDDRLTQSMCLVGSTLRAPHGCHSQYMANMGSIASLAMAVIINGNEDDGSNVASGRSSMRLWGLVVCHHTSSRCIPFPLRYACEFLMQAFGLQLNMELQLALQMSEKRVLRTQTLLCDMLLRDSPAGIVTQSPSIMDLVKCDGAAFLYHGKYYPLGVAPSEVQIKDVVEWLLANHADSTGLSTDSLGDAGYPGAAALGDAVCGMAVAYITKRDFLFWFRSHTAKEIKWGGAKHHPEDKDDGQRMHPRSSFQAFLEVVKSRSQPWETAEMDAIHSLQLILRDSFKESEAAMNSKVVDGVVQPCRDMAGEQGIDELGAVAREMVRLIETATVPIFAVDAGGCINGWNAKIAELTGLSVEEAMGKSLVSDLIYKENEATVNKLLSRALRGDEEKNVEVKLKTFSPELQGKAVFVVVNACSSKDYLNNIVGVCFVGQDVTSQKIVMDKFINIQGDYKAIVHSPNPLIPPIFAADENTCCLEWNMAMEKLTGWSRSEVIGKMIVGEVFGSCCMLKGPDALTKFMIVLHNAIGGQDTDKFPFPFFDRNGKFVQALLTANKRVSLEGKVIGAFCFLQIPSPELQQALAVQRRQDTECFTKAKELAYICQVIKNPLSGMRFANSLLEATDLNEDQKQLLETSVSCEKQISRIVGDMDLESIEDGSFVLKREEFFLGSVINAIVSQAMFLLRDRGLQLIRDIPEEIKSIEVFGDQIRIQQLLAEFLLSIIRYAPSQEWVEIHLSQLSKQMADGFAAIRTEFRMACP
The test can be described thus: pull-down; in vitro: phytochromes purified from yeast (S. cerevisiae) and GST-PIF1; light-dependent. The settings on record: both partners purified.

Turning to `Nc1ncnc2c1ncn2[C@@H]1O[C@H](COP(=O)(O)OP(=O)(O)OP(=O)(O)O)[C@@H](O)[C@H]1O` [ATP], the “in vitro kinase assay, autoradiogram” value on full-length SPA1 is “SPA1 also phosphorylated PIF1 in an ATP concentration- and time-dependent manner”.

B1: GST-PIF1-strep (natural protein, Arabidopsis, UniProt Q8GZM7 1-478, looked up)
chain: MHHFVPDFDTDDDYVNNHNSSLNHLPRKSITTMGEDDDLMELLWQNGQVVVQNQRLHTKKPSSSPPKLLPSMDPQQQPSSDQNLFIQEDEMTSWLHYPLRDDDFCSDLLFSAAPTATATATVSQVTAARPPVSSTNESRPPVRNFMNFSRLRGDFNNGRGGESGPLLSKAVVRESTQVSPSATPSAAASESGLTRRTDGTDSSAVAGGGAYNRKGKAVAMTAPAIEITGTSSSVVSKSEIEPEKTNVDDRKRKEREATTTDETESRSEETKQARVSTTSTKRSRAAEVHNLSERKRRDRINERMKALQELIPRCNKSDKASMLDEAIEYMKSLQLQIQMMSMGCGMMPMMYPGMQQYMPHMAMGMGMNQPIPPPSFMPFPNMLAAQRPLPTQTHMAGSGPQYPVHASDPSRVFVPNQQYDPTSGQPQYPAGYTDPYQQFRGLHPTQPPQFQNQATSYPSSSRVSSSKESEDHGNHTTG
notes: source: E. coli BL21(DE3), purified (Strep-Tactin Sepharose); not shown: GST, N-terminal, kept; Strep tag, C-terminal, kept
With B1, the binding result in test [1] is listed as “binds”.
